A value given as a limit tells only on which side of the number the result lay.

Broadly, the IC50 is the concentration at which inhibition is half-maximal. The low end stands for higher potency, the high end for lower potency.

For one test, the target named is T1, active p38 alpha enzyme (Upstate Biotechnology) (Homo sapiens, UniProt Q16539).
T1 construct: purchased Upstate Biotechnology
T1 sequence (Q16539 whole entry): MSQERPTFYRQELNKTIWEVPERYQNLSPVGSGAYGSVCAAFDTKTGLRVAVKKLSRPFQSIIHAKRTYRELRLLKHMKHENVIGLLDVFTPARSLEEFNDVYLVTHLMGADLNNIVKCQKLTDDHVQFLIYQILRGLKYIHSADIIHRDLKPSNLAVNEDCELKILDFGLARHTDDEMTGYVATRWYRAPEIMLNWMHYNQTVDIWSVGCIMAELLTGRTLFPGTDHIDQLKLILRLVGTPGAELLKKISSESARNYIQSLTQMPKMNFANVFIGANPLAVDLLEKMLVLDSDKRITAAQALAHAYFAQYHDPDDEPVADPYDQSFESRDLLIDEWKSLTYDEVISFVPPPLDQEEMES
Kind of test: p38α biochemical assay (ATP turnover, luminescent detection, Cambrex PKlight). The following applies: p38α biochemical assay, Table 1 Biological Activity. Put shortly:
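Measures total ATP turnover by luminescence after human p38α phosphorylates full MapkapK2 protein. Final ATP is 1.4 uM, and incubation runs 2 hours at 30C. The buffer includes 100 mM MgCl2, 4 mM CaCl2 and 1 mg/ml BSA.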
In turn, `Cc1ccc(SCC(=O)NCc2nc(-c3ccc(F)cc3)c(-c3nc(C(=O)NC(C)C)cs3)o2)cc1` [Example 229] gave an IC50 greater than 1000 nM.
`CC(C)NC(=O)c1csc(-c2oc(CNC(=O)c3cccc(Br)c3)nc2-c2ccc(F)cc2)n1` [Example 268] returned an IC50 greater than 1000 nM.
Take `Cc1ccc(C(=O)N2CCN(Cc3nc(-c4ccc(F)cc4)c(-c4nc(C(=O)NC(C)C)cs4)o3)CC2)cc1` [Example 360]: the IC50 was greater than 1000 nM.
Still for that read-out and setting: as for `CC(C)NC(=O)c1csc(-c2oc(CNC(=O)c3cc(F)c(F)cc3Cl)nc2-c2ccc(F)cc2)n1` [Example 258], the figure is no more than 1000 nM; as for `CCCCc1ccc(C(=O)NCc2onc(-c3ccc(F)cc3)c2-c2nc(C(=O)NC(C)C)cs2)cc1` [Example 683], greater than 1000 nM.
With `CC(C)NC(=O)c1csc(-c2oc(CN3CCN(C(=O)c4ccc5cc(O)ccc5c4)CC3)nc2-c2ccc(F)cc2)n1` [Example 479], the IC50 is greater than 1000 nM.
With `CC(C)NC(=O)c1csc(-c2c(-c3ccc(F)cc3)noc2CNC(=O)c2ccccc2O)n1` [Example 600], the IC50 is greater than 1000 nM.
In turn, `Cc1onc(-c2ccc(F)c(Cl)c2)c1-c1ccn(C(=O)NC(C)C)n1` [Example 23, 3-|3-(3-Chloro-4-fluoro-phenyl)-5-methyl-isoxazol-4-yl|-pyrazole-1-carboxylic acid isopropylamide] displayed an IC50 of no more than 1000 nM.
As to `CC(C)NC(=O)c1csc(-c2c(-c3ccc(F)cc3)noc2CNC(=O)Cc2ccc(C(F)(F)F)cc2)n1` [Example 754], the IC50 is greater than 1000 nM.
Still for that read-out and setting: as for `CC(C)NC(=O)c1csc(-c2oc(CNC(=O)c3cccnc3)nc2-c2ccc(F)cc2)n1` [Example 112], the figure is no more than 1000 nM; as for `CC(=O)NC(Cc1ccc(O)cc1)C(=O)NCc1nc(-c2ccc(F)cc2)c(-c2nc(C(=O)NC(C)C)cs2)o1` (stereo not shown) [Example 305], no more than 1000 nM.
The molecule `CC(C)NC(=O)c1csc(-c2oc(CNC(=O)c3ccc(Cl)nc3)nc2-c2ccc(F)cc2)n1` [Example 152] showed a half-maximal inhibitory concentration (IC50) of no more than 1000 nM.
`CCOc1ccccc1C(=O)NCc1onc(-c2ccc(F)cc2)c1-c1nc(C(=O)NC(C)C)cs1` [Example 654] displayed an IC50 greater than 1000 nM.
For the molecule `Cc1nc(-c2ccc(F)cc2)c(-c2nc(C(N)=O)cs2)o1` [Example 39, 2-|4-(4-Fluoro-phenyl)-2-methyl-oxazol-5-yl|-thiazole-4-carboxylic acid amide], the IC50 was greater than 1000 nM.
`CC(=O)NC(Cc1ccc(O)cc1)C(=O)NCc1onc(-c2ccc(F)cc2)c1-c1nc(C(=O)NC(C)C)cs1` (stereo not shown) [Example 780] registered an IC50 greater than 1000 nM.
As for `CC(C)NC(=O)c1csc(-c2oc(CNC(=O)C(C)NC(=O)OC(C)(C)C)nc2-c2ccc(F)cc2)n1` (stereo not shown) [Example 248], the IC50 was greater than 1000 nM.
Regarding `CC(C)NC(=O)c1csc(-c2oc(CN3CCN(C(=O)c4ccccn4)CC3)nc2-c2ccc(F)cc2)n1` [Example 351], the IC50 was greater than 1000 nM.

The test is the same for the next values; noted with them: p38α kinase; Table 1 Biological Activity.
Regarding `CC(C)CC(C)NC(=O)c1csc(-c2c(-c3ccc(F)cc3)n[nH]c2C2CCNCC2)n1` (stereo not shown) [Example 2058], the IC50 is greater than 1000 nM.
With `CC(C)NC(=O)c1csc(-c2c(-c3ccc(F)cc3)n[nH]c2C2CCN(C(=O)c3ccc(O)cc3O)CC2)n1` [Example 862], the IC50 is greater than 1000 nM.
Still for that read-out and setting: as for `CCCN(CCC)Cc1onc(-c2ccc(F)cc2)c1-c1nc(C(=O)NC(C)C)cs1` [Example 1528], the figure is greater than 1000 nM.
`CC(C)NC(=O)c1csc(-c2oc(CN3CCN(Cc4ccccc4)CC3)nc2-c2ccc(F)cc2)n1` [Example 1249] came in with an IC50 greater than 1000 nM.
The same measure, in the same setting: under `CC(C)NC(=O)c1csc(-c2c(-c3ccc(F)cc3)noc2CNCCc2cccc(F)c2)n1` [Example 1460] stands greater than 1000 nM; under `CC(C)NC(=O)c1csc(-c2c(-c3ccc(F)cc3)noc2CNC(=O)C(C)c2cccc(C(=O)c3ccccc3)c2)n1` (stereo not shown) [Example 805], greater than 1000 nM; under `CC(C)NC(=O)c1ccn(-c2c(-c3ccc(F)cc3)noc2C2CCNCC2)n1` [Example 2188, 1-|3-(4-Fluoro-phenyl)-5-piperidin-4-yl-isoxazol-4-yl|-1H-pyrazole-3-carboxylic acid isopropylamide], greater than 1000 nM.
Regarding `COC[C@@H]1CCCN1Cc1nc(-c2ccc(F)cc2)c(-c2nc(C(=O)NC(C)C)cs2)o1` [Example 1212], the IC50 was greater than 1000 nM.
The same measure, in the same setting: under `Cc1nc(-c2ccc(F)cc2)c(-c2nc(C(=O)N3CCN(C)CC3)cs2)s1` [Example 1849] stands greater than 1000 nM.
`CC(C)NC(=O)c1csc(-c2c(-c3ccc(F)cc3)noc2CN2CCN(c3ccc(C(C)(C)C)cc3)CC2)n1` [Example 1619] had an IC50 greater than 1000 nM.
As to `COc1cccc(NCc2onc(-c3ccc(F)cc3)c2-c2nc(C(=O)NC(C)C)cs2)c1` [Example 1647], the IC50 was greater than 1000 nM.
`CC(C)NC(=O)c1csc(-c2c(-c3ccc(F)cc3)n[nH]c2C2CCN(C(=O)Cc3ccc(O)c(Cl)c3)CC2)n1` [Example 954] returned an IC50 greater than 1000 nM.
Take `Cc1nc(-c2ccc(F)cc2)c(-c2nc(C(=O)NCCN)cs2)s1` [Example 1711]: the IC50 is greater than 1000 nM.
For `CC(C)NC(=O)c1csc(-c2c(-c3ccc(F)cc3)n[nH]c2C2CCN(C(=O)C(C)O)CC2)n1` (stereo not shown) [Example 815], the IC50 is no more than 1000 nM.
As to `CC(C)NC(=O)c1csc(-c2oc(CN(CCO)Cc3ccccc3)nc2-c2ccc(F)cc2)n1` [Example 1234], the IC50 was greater than 1000 nM.
On to `CC(C)NC(=O)c1csc(-c2c(-c3ccc(F)cc3)noc2CN(C)Cc2ccccc2)n1` [Example 1542], for which the IC50 was greater than 1000 nM.
The molecule `CCNCc1onc(-c2ccc(F)cc2)c1-c1nc(C(=O)NC(C)C)cs1` [Example 1383] had an IC50 greater than 1000 nM.
Still for that read-out and setting: as for `COc1cc2c(cc1OC)CN(Cc1onc(-c3ccc(F)cc3)c1-c1nc(C(=O)NC(C)C)cs1)CC2` [Example 1621], the figure is greater than 1000 nM.
`Cc1ccccc1NCc1nc(-c2ccc(F)cc2)c(-c2nc(C(=O)NC(C)C)cs2)o1` [Example 1310] gave an IC50 greater than 1000 nM.
As for `CCC(C)CNCc1nc(-c2ccc(F)cc2)c(-c2nc(C(=O)NC(C)C)cs2)o1` (stereo not shown) [Example 1068], the IC50 was greater than 1000 nM.
Molecule `CC(C)NC(=O)c1csc(-c2c(-c3ccc(F)cc3)n[nH]c2C2CCN(C(=O)c3cc(O)ccc3[N+](=O)[O-])CC2)n1` [Example 947] came in with an IC50 of no more than 1000 nM.
Same read-out and setting: under `CC(C)NC(=O)c1csc(-c2oc(CNc3ccc(Cl)c(Cl)c3)nc2-c2ccc(F)cc2)n1` [Example 1357] stands greater than 1000 nM.
In turn, `CC(C)NC(=O)c1csc(-c2c(-c3ccc(F)cc3)noc2CNCc2ccccc2Cl)n1` [Example 1462] returned an IC50 greater than 1000 nM.
Regarding `CC(C)NC(=O)c1csc(-c2c(-c3ccc(F)cc3)noc2CNc2ccc(N(C)C)cc2)n1` [Example 1684], the IC50 was greater than 1000 nM.
The molecule `CC(Cc1ccncc1)NC(=O)c1csc(-c2c(-c3ccc(F)cc3)n[nH]c2C2CCNCC2)n1` (stereo not shown) [Example 2098] showed an IC50 greater than 1000 nM.
Turning to `O=C(NCc1ccc(F)c(F)c1)c1csc(-c2c(-c3ccc(F)cc3)n[nH]c2C2CCNCC2)n1` [Example 2112], the IC50 was greater than 1000 nM.
Consider `CCOC(=O)N1CCN(Cc2nc(-c3ccc(F)cc3)c(-c3nc(C(=O)NC(C)C)cs3)o2)CC1` [Example 1239], for which the IC50 is greater than 1000 nM.
In turn, `CCOc1cccc(NC(=O)c2csc(-c3sc(C)nc3-c3ccc(F)cc3)n2)c1` [Example 1989] registered an IC50 greater than 1000 nM.
On the same count and under the same terms, under `CC(C)NC(=O)c1csc(-c2oc(CNC(C)CCc3ccccc3)nc2-c2ccc(F)cc2)n1` (stereo not shown) [Example 1140] stands greater than 1000 nM.
